Drawing on patent publication US20050119190A1, “Inhibitors of the blood-clotting factor xa, production thereof and use of the same” (priority 2002, published 2005), this text covers Ki for 29 compounds.

For orientation: Ki means a measure of affinity in units of concentration, obtained from inhibition or displacement.

Structures can show the parent of a compound that is named as a salt.

The first experiment deals with T1, F Xa (bovine) (Bos taurus, UniProt P00743).
T1 construct: purchased Diagnostic Reagents Ltd, Thame, GB
T1 sequence (P00743 234-492 limits assumed): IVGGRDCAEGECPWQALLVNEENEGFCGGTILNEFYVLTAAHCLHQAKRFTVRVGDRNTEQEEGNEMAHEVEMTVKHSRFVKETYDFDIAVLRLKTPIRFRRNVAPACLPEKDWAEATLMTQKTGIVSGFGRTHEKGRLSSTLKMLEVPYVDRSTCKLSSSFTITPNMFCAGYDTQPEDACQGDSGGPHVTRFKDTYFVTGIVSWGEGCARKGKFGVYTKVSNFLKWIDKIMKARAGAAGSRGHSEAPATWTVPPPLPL
T1 sequence (P00743 41-180 partner limits assumed): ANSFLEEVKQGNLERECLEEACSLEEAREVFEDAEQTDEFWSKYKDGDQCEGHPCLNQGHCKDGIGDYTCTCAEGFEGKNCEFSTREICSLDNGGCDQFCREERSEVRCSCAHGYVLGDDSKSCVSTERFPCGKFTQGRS
Kind of experiment: Inhibition of F Xa, Ki by the method of Dixon, chromogenic substrate Moc-D-Nle-Gly-Arg-pNA. In kind it is biochemical. The conditions noted are these: Example 2; bovine F Xa, 25° C., pH 8.0; average of at least three determinations. On the procedure: The inhibitory effect was determined by incubating 200 μl of Tris buffer (0.05 M, 0.154 M NaCI, 5% ethanol, pH 8.0; contains the inhibitor), 25 μl of substrate (Moc-D-Nle-Gly-Arg-pNA in H2O; Pentapharm Ltd., Basel, Switzerland) and 50 μl of F Xa (bovine, Diagnostic Reagents Ltd, Thame, GB) at 25° C. After 3 min, the reaction was stopped by adding 25 μl of acetic acid (50%), and the absorption at 405 nm was determined using a microplate reader (MR 5000, Dynatech, Denkendorf, Germany). The Ki values were found by the method of Dixon (Biochem. J. 55, 170-171, 1953) by linear regression using a computer program. The Ki values are the average of at least three determinations.
On to `CC(C)(C)OC[C@@H](NS(=O)(=O)Cc1ccccc1)C(=O)NCC(=O)NCc1ccc(C(=N)N)cc1` [Bzl—SO2 D CH2—O—tBu H CH2 CH2, Benzylsulfonyl-D-Ser(tBu)-Gly 4-amidinobenzylamide], for which the Ki amounted to 0.05 µM.

On to `CC(C)(C)OC[C@@H](NS(=O)(=O)Cc1ccccc1)C(=O)N[C@@H](CCC(=O)O)C(=O)NCc1ccc(C(=N)N)cc1` [Bzl—SO2 D CH2—O—tBu H CH—(CH2)2—COOH CH2, Benzylsulfonyl-D-Ser(tBu)-Glu 4-amidinobenzylamide×TFA], for which the affinity, expressed as Ki, was 0.25 µM. `CC(C)(C)OC[C@@H](NS(=O)(=O)Cc1ccccc1)C(=O)NC(CC(=O)O)C(=O)NCc1ccc(C(=N)N)cc1` (stereo partly drawn) [Bzl—SO2 D CH2—O—tBu H CH—CH2—COOH CH2] showed a Ki of 1.2 µM.

The same experiment, now with this note: Example 4; inhibition of factor Xa by inhibitors of formula I.
Turning to “4-(Aminomethyl)benzylsulfonyl-dSer(tBu)-Gly 4-amidinobenzylamide×2 TFA [Example 7]”, the affinity corresponds to a Ki of 0.029 µM. Same read-out and setting: for `CC(C)(C)OC[C@@H](NS(=O)(=O)Cc1ccccc1)C(=O)N[C@@H](CCC(=O)O)C(=O)NCc1ccc(C(=N)N)cc1` [Bzl—SO2 D CH2—O—tBu H CH—(CH2)2—COOH CH2, Benzylsulfonyl-D-Ser(tBu)-Glu 4-amidinobenzylamide×TFA] the value was 0.0065 µM; for `N=C(N)c1ccc(CNC(=O)CNC(=O)[C@@H](Cc2cccc(C(=N)N)c2)NS(=O)(=O)Cc2ccccc2)cc1` [No. 1, Benzylsulfonyl-dPhe(3-amidino)-Gly 4-(amidino)benzylamide×2 TFA], 0.034 µM.

Compound `CC(C)(C)OC[C@@H](NS(=O)(=O)Cc1ccccc1)C(=O)N[C@@H](CO)C(=O)NCc1ccc(C(=N)N)cc1` [No. 11, Bzls-dSer(tBu)-Ser 4-(amidino)benzylamide×TFA] showed a Ki of 0.028 µM. For the compound `CC(C)(C)OC[C@@H](NS(=O)(=O)Cc1cccc(C(=O)O)c1)C(=O)NCC(=O)NCc1ccc(C(=N)N)cc1` [No. 19, 3-(HOOC)Benzylsulfonyl-dSer(tBu)-Gly 4-amidinobenzylamide×TFA], the Ki was 0.027 µM.

The compound `N=C(N)NCCC[C@@H](NS(=O)(=O)CC1CCCCC1)C(=O)NCC(=O)NCc1ccc(C(=N)N)cc1` [compound 2] displayed a Ki of 0.0067 µM. Compound `CC(C)(C)OC[C@@H](NS(=O)(=O)Cc1ccc(Cl)cc1)C(=O)NCC(=O)NCc1ccc(C(=N)N)cc1` [compound 3] gave a Ki of 0.014 µM. Compound `CC(C)(C)OC[C@@H](NS(=O)(=O)Cc1ccc(F)cc1)C(=O)NCC(=O)NCc1ccc(C(=N)N)cc1` [compound 9] yielded a Ki of 0.036 µM. Regarding `CC(C)(C)OC[C@@H](NS(=O)(=O)Cc1ccc(C(=O)O)cc1)C(=O)NCC(=O)NCc1ccc(C(=N)N)cc1` [compound 10], the Ki is 0.053 µM.

In the case of `CC(C)(C)OC[C@@H](NS(=O)(=O)Cc1ccccc1)C(=O)N[C@@H](CO)C(=O)NCc1ccc(C(=N)N)cc1` [compound 11], the affinity, expressed as Ki, was 0.054 µM. On the same count and under the same terms, to `CC(C)(C)OC[C@@H](NS(=O)(=O)Cc1ccc(C#N)cc1)C(=O)NCC(=O)NCc1ccc(C(=N)N)cc1` [compound 12] belongs 0.065 µM. The same measure, in the same setting: to `N=C(N)c1ccc(CNC(=O)C(CCCCN)NC(=O)C(CC2CCCCC2)NS(=O)(=O)Cc2ccccc2)cc1` (stereo not drawn) [compound 13] belongs 0.067 µM; to `COC(=O)Cc1ccc(CS(=O)(=O)N[C@H](COC(C)(C)C)C(=O)NCC(=O)NCc2ccc(C(=N)N)cc2)cc1` [compound 14], 0.07 µM.

Consider `CC(C)(C)OC[C@@H](NS(=O)(=O)Cc1ccc2ccccc2c1)C(=O)NCC(=O)NCc1ccc(C(=N)N)cc1` [compound 15], for which the Ki is 0.078 µM. Same read-out and setting: for `CC(C)(C)OC[C@@H](NS(=O)(=O)Cc1ccc(Cl)c(Cl)c1)C(=O)NCC(=O)NCc1ccc(C(=N)N)cc1` [compound 16] the value was 0.083 µM; for `CC(C)(C)OC[C@@H](NS(=O)(=O)CCc1ccccc1)C(=O)NCC(=O)NCc1ccc(C(=N)N)cc1` [compound 17], 0.088 µM. Take `CC(C)(C)OC[C@@H](NS(=O)(=O)Cc1cccc(C(=O)O)c1)C(=O)NCC(=O)NCc1ccc(C(=N)N)cc1` [compound 19]: the affinity, expressed as Ki, was 0.13 µM.

For the compound `CC(C)(C)OC[C@@H](NS(=O)(=O)Cc1ccccc1C(=O)O)C(=O)NCC(=O)NCc1ccc(C(=N)N)cc1` [compound 20], the affinity corresponds to a Ki of 0.14 µM. Take `COC(=O)c1ccc(CS(=O)(=O)N[C@H](COC(C)(C)C)C(=O)NCC(=O)NCc2ccc(C(=N)N)cc2)cc1` [compound 21]: the Ki turned out to be 0.16 µM. Compound `CC(C)(C)OC[C@@H](NS(=O)(=O)Cc1ccncc1)C(=O)NCC(=O)NCc1ccc(C(=N)N)cc1` [compound 22] yielded a Ki of 0.17 µM. With `CC(C)(C)OC[C@@H](NS(=O)(=O)Cc1ccc(CC(=O)O)cc1)C(=O)NCC(=O)NCc1ccc(C(=N)N)cc1` [compound 23], the Ki worked out at 0.17 µM. Still for that read-out and setting: to `N=C(N)c1ccc(CNC(=O)CNC(=O)[C@@H](Cc2ccc(C(=N)N)cc2)NS(=O)(=O)Cc2ccccc2)cc1` [compound 26] belongs 0.26 µM; to `CC(C)(C)OCC(NS(=O)(=O)Cc1ccc(C(=O)O)cc1)C(=O)NC(CO)C(=O)NCc1ccc(C(=N)N)cc1` (stereo not drawn) [compound 27], 0.27 µM. On the same count and under the same terms, to `CC(C)(C)OC[C@@H](NS(=O)(=O)CCc1cccc2ccccc12)C(=O)NCC(=O)NCc1ccc(C(=N)N)cc1` [compound 28] belongs 0.28 µM; to `N=C(N)c1ccc(CNC(=O)CNC(=O)[C@@H](Cc2c[nH]cn2)NS(=O)(=O)Cc2ccccc2)cc1` [compound 32], 0.67 µM; to `CC(C)(C)OC[C@@H](NS(=O)(=O)Cc1ccccc1)C(=O)NCC(=O)NCc1ccc(C(N)=NO)cc1` [compound 33], 26 µM.

A further experiment addresses F Xa.
Experiment: not given
The conditions noted are these: values from cited literature; cited from earlier work.
With `N=C(N)c1ccc(C=C2CCCCC(=Cc3ccc(C(=N)N)cc3)C2=O)cc1` [BABCH], the Ki is 0.013 µM.
